Source: PubChem BioAssay AID489033 (Sanford-Burnham Center for Chemical Genomics, 2010)
Active and inactive are the calls of the source. The rule behind the calls is not given here. *1 amine or outer side, *2 acyl side, *3 side chain or, on linkers, in order; H or OH if unused. Where a SMILES comes first, the peptide text is derived from it. [ ]: non-standard residue; d: D form. X2 = CCC[C@@H](N[*:1])[C@H](C)C(=O)O[C@H](C(=O)[*:2])[C@@H](C)CC; X1 = CC(N[*:1])C(=O)C(C)(C)C(=O)[*:2]; NMeY = CN[C@@H](Cc1ccc(O)cc1)C(=O)O; NMeL = CN[C@@H](CC(C)C)C(=O)O; NMeV = CN[C@H](C(=O)O)C(C)C; NMeA = CN[C@@H](C)C(=O)O

System: 697B B-cell line, NF-kB luciferase reporter luminescence
Assay: NF-kB reporter inhibition in B cells, dose response, selectivity assay for T-cell antigen receptor NF-kB inhibitors, 697B cells, luminescence (AID 489033)

SMILES | IC50
COc1cccc(N/C(N)=N/c2nc(CSc3ccccn3)cc(=O)[nH]2)c1 | > 80 µM (inactive)
CC[C@@]1(O)C(=O)OCc2c1cc1n(c2=O)Cc2cc3c(CN(C)C)c(O)ccc3nc2-1 | 0.96 µM
CCN(CC)c1ccc(/C=N/NC(=O)c2cccc(S(=O)(=O)Nc3ccccc3OC)c2)c(O)c1 | 3.3 µM
COC(=O)C1=C(CN2CCCc3ccccc32)NC(=O)NC1c1ccc(F)cc1 (configuration not stated) | 3.48 µM
C[C@]12CC[C@@H]3c4cc(O)c(O)cc4CC[C@H]3[C@@H]1CC[C@@H]2O | 14.3 µM
COc1ccc(OC)c(Nc2cc(-c3ccccc3)nc(N)n2)c1 | > 80 µM (inactive)
Cc1cccc(N2CCN(C(=O)c3c(-c4ccccc4Cl)noc3C)CC2)c1C | > 80 µM (inactive)
CC#CC(=O)N1CCC(n2nccc2NC(=O)c2ccc3c(c2)OCO3)CC1 | > 80 µM (inactive)
CCOc1ccc(Nc2cc(C)nc(-n3nc(C)cc3C)n2)cc1 | > 80 µM (inactive)
CCN(CC)c1ccc(NC(=O)c2cc(OC)cc(OC)c2)c(C)c1 | > 80 µM (inactive)
Cc1ccc(/C=N/NC(=O)c2c(C)nc3ccc(Br)cn23)cc1 | > 80 µM (inactive)
CCOC(=O)c1[nH]c(C=O)c(C(=O)OCC)c1C | 59.5 µM (inactive)
CCCCCn1c2c(c(=N)c3ccccc31)CCC2 | 50.3 µM (inactive)
C[C@]12CC[C@H](O)C[C@H]1CC[C@@H]1[C@@H]2C[C@@H](O)[C@]2(C)[C@@H](C3=CC(=O)OC3)CC[C@]12O | 1.6 µM
O=C(COc1ccc(C(=O)c2ccccc2)cc1)NCc1ccc(F)cc1 | > 80 µM (inactive)
COc1cccc(N2CCN(C(=O)c3ccc(CS(=O)c4ccccc4Cl)o3)CC2)c1 (configuration not stated) | 69.8 µM (inactive)
COC(=O)c1ccc2nc(Nc3nc4c(F)cc(F)cc4s3)sc2c1 | 24.6 µM (inactive)
CCC[C@H]1NC(=O)[C@H](C)N(C)C(=O)C(C)(C)C(=O)C(C)NC(=O)[C@H](Cc2ccc(OC)cc2)N(C)C(=O)[C@H](C(C)C)N(C)C(=O)CNC(=O)[C@H](CC(C)C)N(C)C(=O)CNC(=O)[C@H]([C@@H](C)CC)OC(=O)[C@H]1C (some centres not stated) (cyclo(G[NMeL]G[NMeV][NMeY](Me)[X1][NMeA][X2])) | 29.3 µM (inactive)
Cc1ccc(C(=O)Nc2ncc(Cc3ccc(SC(F)F)cc3)s2)cc1 | > 80 µM (inactive)
COc1ccc(OC)c2c1C(=O)C(Cl)=C(Cl)C2=O | 4.03 µM
CCC(O)C1CCN(C(=O)c2cc(COc3ccc4ncccc4c3)on2)CC1 (configuration not stated) | 3.88 µM
Cc1ccc(-c2cc3c(N=O)c4ccccc4c-3n[nH]2)cc1 | 4.58 µM
CCN1/C(=C/C(C)=C/c2sc3ccccc3[n+]2CC)Sc2ccccc21 | 2.42 µM

SMILES | IC50
Cc1cc(C)c(CN2CCN(C(=O)Cn3cnc4c(OCc5ccccc5)ncnc43)CC2)c(C)c1 | > 80 µM (inactive)
CC(=O)O[C@H]1C(=O)[C@]2(C)[C@H]([C@H](OC(=O)c3ccccc3)[C@]3(O)C[C@H](OC(=O)[C@H](O)[C@@H](NC(=O)c4ccccc4)c4ccccc4)C(C)=C1C3(C)C)[C@]1(OC(C)=O)CO[C@@H]1C[C@@H]2O | > 80 µM (inactive)
COc1cc(-c2noc(C)c2/C=C/c2ccc(OC(C)=O)cc2)cc(OC)c1OC | > 80 µM (inactive)
CCCSc1nnc(Sc2nnnn2-c2ccccc2)s1 | 7 µM
CC(=O)Nc1ccc(S(=O)(=O)N2CCCc3ccccc32)cc1 | > 80 µM (inactive)
Cc1ccc(/C=N/NC(=O)C2COc3ccccc3O2)s1 (configuration not stated) | 45.6 µM (inactive)
Cc1ncoc1C(=O)NC1CCCc2c1cnn2-c1ccc(C(C)(C)C)cc1 (configuration not stated) | 69.7 µM (inactive)
Cc1ccc2oc(/N=C(\N)NC(=O)C(C)(C)C)nc2c1 | 0.47 µM
O=C(/C=C/c1cccc([N+](=O)[O-])c1)n1cnc2ccccc21 | 3.2 µM
Cc1ccc(O)c(N=Nc2nccs2)c1 | 8.6 µM
CCCCCCCCCn1c2c(c(=N)c3c1CCC3)CCC2 | 10.7 µM
O=c1cc(-c2ccccc2)[nH]c2cc(Cl)ccc12 | > 80 µM (inactive)
O=[N+]([O-])c1ccc(O)c(/C=N/Nc2ccc(Cl)nn2)c1 | > 80 µM (inactive)
O=C1c2cccc3cc([N+](=O)[O-])cc(c23)C(=O)N1CCN1CCCC1 | 18.7 µM
COc1ccc(C(=O)c2ccc(N(C)C)cc2)c(OC)c1 | > 80 µM (inactive)
CCOC(=O)c1[nH]c2c(c1C)C(=O)CC(c1ccco1)C2 (configuration not stated) | > 80 µM (inactive)
CC(=O)O[C@H]1C(=O)[C@@]2(C)C([C@H](OC(=O)c3ccccc3)[C@]3(O)C[C@H](OC(=O)[C@H](O)[C@@H](NC(=O)Cc4ccccc4)c4ccccc4)C(C)=C1C3(C)C)[C@]1(OC(C)=O)CO[C@@H]1C[C@@H]2O (some centres not stated) | > 80 µM (inactive)
COc1ccc(-c2ccc3oc(-c4ccc(OC)cc4)c(C#CCO)c3c2)cc1 | > 80 µM (inactive)
CC[n+]1cc(C)ccc1/C=C/c1ccc(N(C)C)cc1 | > 80 µM (inactive)
CCOc1ccccc1C1CC(=O)Nc2cc3c(cc21)OCO3 (configuration not stated) | > 80 µM (inactive)
Cc1cccc(N(C)S(=O)(=O)c2ccc(-c3cnc(C4CC4)o3)cc2)c1 | > 80 µM (inactive)
CCCCCCCOc1ccc(OC(=O)c2ccncc2)cc1 | > 80 µM (inactive)
COc1cccc(-c2cc(=O)c3cc(NC(=O)c4ccc(N(C)C)cc4)ccc3[nH]2)c1 | > 80 µM (inactive)

SMILES | IC50
Cc1ccc(NS(=O)(=O)c2ccc(C(=O)NC3CCN(Cc4ccccc4)CC3)cc2)cc1 | 45.5 µM (inactive)
COc1ccc(-c2c(C#N)c(N)nc3c2CCc2ccccc2-3)cc1OC | 54.4 µM (inactive)
Cc1ccc(S(=O)(=O)NCc2ccncc2)c(C)c1C | > 80 µM (inactive)
Cc1cc(NC(=O)CSc2nc3ccccc3c(=O)n2C2CCCC2)no1 | > 80 µM (inactive)
O=C(N/N=C/c1ccccc1Cl)c1[nH]c2ccc(Br)cc2c1-c1ccccc1 | > 80 µM (inactive)
COc1cc(NS(C)(=O)=O)ccc1Nc1c2ccccc2nc2ccccc12 | 15.8 µM
COc1cc(C2c3cc4c(cc3CC3COC(=O)C32)OCO4)cc(OC)c1OC (configuration not stated) | > 80 µM (inactive)
C=CCOC(=O)c1[nH]c2c(c1C)C(=O)CC(c1ccco1)C2 (configuration not stated) | > 80 µM (inactive)
Clc1ccc(CSc2nncn2-c2ccc3c(c2)OCCO3)cc1 | 70 µM (inactive)
Cc1ccc(-c2nc(-c3ccccn3)no2)cc1 | 3.78 µM
CCCC(=O)NC(c1ccc(N(C)C)cc1)c1ccc2cccnc2c1O (configuration not stated) | > 80 µM (inactive)
O=S1(=O)C=C(Sc2nc3ccccc3s2)c2ccccc21 | 0.32 µM
CCN1/C(=C/c2ccc3ccccc3[n+]2CC)C=Cc2ccccc21 | 3.57 µM
O=C1C=CC(O)(c2cc(=O)c3c(O)cc(O)cc3o2)C=C1 | 1.62 µM
CC(=O)Nc1ccc(S(=O)(=O)N2c3ccc(F)cc3CCC2C)cc1 (configuration not stated) | > 80 µM (inactive)
O=C(Nc1ccc(S(=O)(=O)Nc2ccc(F)cc2)cc1)c1ccc(CN2CCOCC2)cc1 | > 80 µM (inactive)
COc1ccc(NC(=O)/C(Cl)=C(/Cl)S(=O)Cc2ccccc2)cn1 (configuration not stated) | 0.6 µM
C/C=C(\C)C(=O)N[C@@H](c1ccccc1)[C@@H](O)C(=O)O[C@H]1C[C@@]2(O)[C@@H](OC(=O)c3ccccc3)C3[C@](C)(C(=O)[C@H](O)C(=C1C)C2(C)C)[C@@H](O)C[C@H]1OC[C@@]31OC(C)=O (some centres not stated) | > 80 µM (inactive)
CC(C)c1oc(=O)cc2c1[C@@H](O)[C@H]1OC(=O)[C@@]3(C)C[C@@H](O)[C@@H](O)[C@@]2(C)C13 (some centres not stated) | 7.2 µM
CC(=O)c1ccc(N2CCN(S(=O)(=O)c3ccc4c(c3)CC(C)N4C(=O)C3CC3)CC2)cc1 (configuration not stated) | 0.72 µM
COc1cc(/C=C2/SC(=Nc3ccc(O)cc3)NC2=O)ccc1O | 23.4 µM (inactive)
CCCCCCCn1c2c(c(=N)c3ccccc31)CCC2 | 3.7 µM
COc1cc(C2C(C#N)=C(N)Oc3cc(N(C)C)ccc32)cc2c1OCO2 (configuration not stated) | > 80 µM (inactive)

SMILES | IC50
O=C(Nc1ccn(Cc2ccccc2F)n1)c1ccc(COc2ccc(Br)cc2)cc1 | > 80 µM (inactive)
Cc1cc(O)c2c(c1O)C(=O)[C@]13C(=C2O)C(=O)[C@@H]2[C@@H](O)[C@H]1[C@@H]1[C@H](O)[C@H]3C(=O)C3=C(O)c4c(O)cc(C)c(O)c4C(=O)[C@]312 | > 80 µM (inactive)
O=C(Nc1ccc(Cc2ccncc2)cc1)c1ccc(S(=O)(=O)N2CCCC2)cc1 | 5.3 µM
Cc1cc(C(=O)N2CC=C(c3ccccc3)CC2)c2ccccc2n1 | > 80 µM (inactive)
O=C(Nc1ccncc1)C1CCCN(S(=O)(=O)c2cccc3cccnc23)C1 (configuration not stated) | > 80 µM (inactive)
Cc1c(C)c2cccnc2c2ncccc12 | 6.81 µM
COc1cc(C(=O)Nc2ccc3c(c2)CCN3C(C)=O)cc(OC)c1OC | > 80 µM (inactive)
CCC(C)(C)c1ccc(OCCCC[n+]2cccc(C)c2C)c(C(C)(C)CC)c1 | 16.2 µM
O=C(Nc1ccc(S(=O)(=O)N2CCOCC2)cc1)c1ccc(CN2CCc3ccccc3C2)cc1 | > 80 µM (inactive)
O=C(CNC(=O)c1ccco1)N=Nc1c(O)n(CCc2ccccc2)c2ccccc12 | > 80 µM (inactive)
COc1cccc(CN(C)C(=O)c2ccc(OCC(=O)Nc3cccc(C(F)(F)F)c3)c(OC)c2)c1 | 65.7 µM (inactive)
CCCCCc1ccc(OCCCC[n+]2ccc(C)cc2)c(CCCCC)c1 | 4.21 µM
O=c1cc(-c2ccccc2)[nH]c2cc(F)ccc12 | > 80 µM (inactive)
Cc1cc(-c2ccc(C(C)C)c(S(=O)(=O)N3CCN(c4ccccc4)CC3)c2)on1 | > 80 µM (inactive)
Cc1ccc(C(=O)Nc2cccc(C(=O)O)c2)cc1 | 1.7 µM
Oc1ccccc1N=Nc1nc(-c2ccccc2)c(-c2ccccc2)[nH]1 | 4.55 µM
COc1cccc(OC)c1C1=NCC(=O)Nc2c1oc1ccc(Br)cc21 | 56.8 µM (inactive)
Cc1ccsc1/C=N/NC(=O)c1cc(-c2ccncc2)nc2ccccc12 | 2.38 µM
CCCCc1ccc(NC(=O)C(=O)NCCN2CCN(Cc3ccc([N+](=O)[O-])cc3)CC2)cc1 | > 80 µM (inactive)
CCOc1ccc(N(CC(=O)Nc2ccccc2C)S(=O)(=O)c2c(C)noc2C)cc1 | > 80 µM (inactive)
CCCCC(=O)NC(c1ccc(Cl)cc1)c1ccc2cccnc2c1O (configuration not stated) | > 80 µM (inactive)
COc1ccccc1NC(=O)Cn1nnc(C(=O)NCc2cccs2)c1N | > 80 µM (inactive)
Cc1cccc(NS(=O)(=O)c2ccc(-c3cnc(C4CC4)o3)cc2)c1 | > 80 µM (inactive)
